Experimental data reported in the supplement of paper PMC10307832.

Columns and labels:
Assay in all cases: relative viability (nuclei count vs DMSO), 5 days (fraction); higher = more cells survive
Venetoclax + Luminespib = compound: CC1(C)CCC(CN2CCN(c3ccc(C(=O)NS(=O)(=O)c4ccc(NCC5CCOCC5)c([N+](=O)[O-])c4)c(Oc4cnc5[nH]ccc5c4)c3)CC2)=C(c2ccc(Cl)cc2)C1 [Venetoclax] + CCNC(=O)c1noc(-c2cc(C(C)C)c(O)cc2O)c1-c1ccc(CN2CCOCC2)cc1 [Luminespib] (partner 0.01 µM)
Procedure, shortened: (§1)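 Medians of duplicate plates are given as relative viability. That measure is the nuclei count in treated wells divided by the count in vehicle wells. Counts were taken on 4× images of lung cancer cell lines in 1536-well plates, 5 days after pin-tool dosing the day after seeding with one drug alone or a fixed anchor-drug dose plus five library-drug doses (not always all listed) in √10 steps.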

Venetoclax + Phenformin = compound: CC1(C)CCC(CN2CCN(c3ccc(C(=O)NS(=O)(=O)c4ccc(NCC5CCOCC5)c([N+](=O)[O-])c4)c(Oc4cnc5[nH]ccc5c4)c3)CC2)=C(c2ccc(Cl)cc2)C1 [Venetoclax] + N=C(N)NC(=N)NCCc1ccccc1 [Phenformin] (partner 250 µM)
Procedure, shortened: as §1

Venetoclax + Decitabine = compound: CC1(C)CCC(CN2CCN(c3ccc(C(=O)NS(=O)(=O)c4ccc(NCC5CCOCC5)c([N+](=O)[O-])c4)c(Oc4cnc5[nH]ccc5c4)c3)CC2)=C(c2ccc(Cl)cc2)C1 [Venetoclax] + Nc1ncn([C@H]2C[C@H](O)[C@@H](CO)O2)c(=O)n1 [Decitabine] (partner 2 µM)
Procedure, shortened: as §1

Selumetinib + Linsitinib = compound: Cn1cnc2c(F)c(Nc3ccc(Br)cc3Cl)c(C(=O)NOCCO)cc21 [Selumetinib] + C[C@]1(O)C[C@@H](c2nc(-c3ccc4ccc(-c5ccccc5)nc4c3)c3c(N)nccn32)C1 [Linsitinib] (partner 1 µM)
Procedure, shortened: as §1

| Cell Line | relative viability (Venetoclax + Luminespib; first compound 0.01 µM) | relative viability (Venetoclax + Luminespib; first compound 0.03162 µM) | relative viability (Venetoclax + Luminespib; first compound 0.1 µM) | relative viability (Venetoclax + Luminespib; first compound 0.3162 µM) | relative viability (Venetoclax + Luminespib; first compound 1 µM) | relative viability (Venetoclax + Phenformin; first compound 0.01 µM) | relative viability (Venetoclax + Phenformin; first compound 0.03162 µM) | relative viability (Venetoclax + Phenformin; first compound 0.1 µM) | relative viability (Venetoclax + Phenformin; first compound 0.3162 µM) | relative viability (Venetoclax + Phenformin; first compound 1 µM) | relative viability (Venetoclax + Decitabine; first compound 0.01 µM) | relative viability (Venetoclax + Decitabine; first compound 0.03162 µM) | relative viability (Venetoclax + Decitabine; first compound 0.1 µM) | relative viability (Venetoclax + Decitabine; first compound 0.3162 µM) | relative viability (Venetoclax + Decitabine; first compound 1 µM) | relative viability (Selumetinib + Linsitinib; first compound 0.02 µM) | relative viability (Selumetinib + Linsitinib; first compound 0.06325 µM) | relative viability (Selumetinib + Linsitinib; first compound 0.2 µM) | relative viability (Selumetinib + Linsitinib; first compound 0.6325 µM) |
| --- | --- | --- | --- | --- | --- | --- | --- | --- | --- | --- | --- | --- | --- | --- | --- | --- | --- | --- | --- |
| NCI-H1734 | 0.184 | 0.188 | 0.244 | 0.204 | 0.224 | 0.396 | 0.446 | 0.326 | 0.411 | 0.358 | 0.464 | 0.515 | 0.504 | 0.474 | 0.493 | 0.862 | 0.849 | 0.865 | 0.816 |
| NCI-H1915 | 0.745 | 0.808 | 0.708 | 0.699 | 0.695 | 0.362 | 0.385 | 0.354 | 0.376 | 0.375 | 0.23 | 0.279 | 0.258 | 0.258 | 0.258 | 0.768 | 1.02 | 0.926 | 0.539 |
| NCI-H838 | 0.408 | 0.255 | 0.24 | 0.378 | 0.275 | 0.63 | 0.591 | 0.448 | 0.636 | 0.507 | 0.53 | 0.485 | 0.445 | 0.449 | 0.477 | 0.883 | 0.848 | 0.807 | 0.735 |
| HCC-15 | 0.479 | 0.318 | 0.308 | 0.316 | 0.181 | 0.451 | 0.48 | 0.455 | 0.448 | 0.406 | 0.519 | 0.699 | 0.611 | 0.611 | 0.543 | 0.674 | 0.502 | 0.351 | 0.232 |
| NCI-H650 | 0.805 | 0.837 | 0.751 | 0.954 | 0.735 | 0.439 | 0.487 | 0.438 | 0.488 | 0.435 | 0.326 | 0.311 | 0.326 | 0.31 | 0.372 | 1.18 | 1.03 | 0.941 | 1.07 |
| NCI-H1651 | 0.872 | 0.882 | 0.817 | 0.8 | 0.79 | 0.373 | 0.327 | 0.287 | 0.329 | 0.342 | 0.611 | 0.701 | 0.548 | 0.512 | 0.665 | 0.973 | 0.962 | 0.815 | 0.902 |
| NCI-H2405 | 0.747 | 0.754 | 0.85 | 0.712 | 0.639 | 0.343 | 0.357 | 0.348 | 0.404 | 0.379 | 0.763 | 0.683 | 0.74 | 0.717 | 0.633 | 0.77 | 0.575 | 0.546 | 0.392 |
| LU99A | 0.232 | 0.256 | 0.262 | 0.227 | 0.37 | 0.852 | 0.92 | 0.799 | 0.878 | 0.822 | 0.758 | 0.957 | 0.831 | 0.803 | 0.858 | 0.49 | 0.567 | 0.511 | 0.566 |
| H3255 | 0.915 | 0.993 | 0.846 | 0.947 | 0.822 | 0.407 | 0.43 | 0.348 | 0.345 | 0.414 | 0.657 | 0.582 | 0.496 | 0.635 | 0.597 | 0.974 | 0.899 | 0.918 | 0.825 |
| NCI-H1993 | 0.881 | 0.843 | 0.917 | 0.896 | 0.777 | 0.603 | 0.494 | 0.473 | 0.48 | 0.528 | 0.505 | 0.673 | 0.541 | 0.621 | 0.552 | 0.746 | 0.688 | 0.754 | 0.878 |
| NCI-H322M | 1 | 0.842 | 0.814 | 0.944 | 0.941 | 0.781 | 0.793 | 0.763 | 0.886 | 0.803 | 0.709 | 0.695 | 0.685 | 0.804 | 0.747 | 0.717 | 0.608 | 0.67 | 0.626 |
| NCI-H460 | 0.0354 | 0.0317 | 0.0311 | 0.0401 | 0.0316 | 0.424 | 0.55 | 0.478 | 0.497 | 0.461 | 0.442 | 0.525 | 0.493 | 0.498 | 0.447 | 0.666 | 0.429 | 0.262 | 0.214 |
| NCI-H1395 | 0.661 | 0.805 | 0.517 | 0.793 | 0.658 | 0.45 | 0.444 | 0.405 | 0.473 | 0.428 | 0.71 | 0.673 | 0.736 | 0.692 | 0.63 | 1.05 | 0.939 | 0.973 | 1.08 |
| LC-2-ad | 1.05 | 0.962 | 0.981 | 1.01 | 0.898 | 0.595 | 0.606 | 0.551 | 0.616 | 0.565 | 0.858 | 0.778 | 0.785 | 0.78 | 0.765 | 0.824 | 0.801 | 0.653 | 0.9 |
| NCI-H358 | 0.402 | 0.313 | 0.245 | 0.579 | 0.321 | 0.369 | 0.291 | 0.282 | 0.406 | 0.325 | 0.18 | 0.238 | 0.226 | 0.208 | 0.205 | 0.472 | 0.512 | 0.424 | 0.365 |
| PC-3 [JPC-3] | 0.673 | 0.661 | 0.667 | 0.688 | 0.668 | 0.503 | 0.51 | 0.487 | 0.468 | 0.513 | 0.854 | 0.788 | 0.931 | 0.809 | 0.805 | 0.95 | 0.876 | 0.92 | 0.727 |
